US20220298213A1, “IN VIVO ENGINEERED CEREBLON PROTEIN” (Vividion Therapeutics, Inc., priority 2018, published 2022)
Like-named read-outs stand apart in the source and are kept apart here.

Experiments:
Assay type in all cases: binding
PRTN_C = experiment: Inhibition of probe labeling at screening concentration (Table 1); conditions: 500 μM
Method: (§1) Cells were resuspended in cold PBS on ice and sonicated with a probe sonicator to achieve lysis. 200 μL of lysate containing 5 mg/ml proteome was treated with 2 μL of 100× compound stock in a 2-mL deep-well plate. The treated lysate was subsequently incubate at 25° C. for 1 hr with shaking at 600 rpm. The treated lysate was further incubated with 2 μL of 10 mM desthiobiotin iodoacetamide probe at 25° C. for 1 hr with shaking at 600 rpm. Next, the lysate was further treat with 20 μL of solution of PBS containing 11 mM MgSO4 and 2.5% Turbonuclease stock and incubated at 25° C. for 20 minutes with shaking at 600 rpm. 1.7 mL ice-cold acetone was added to each well and incubated at −20° C. for 2 hr, followed by max speed (4200 rpm) spin for 45 min. Acetone was then decanted and the plates were blotted to remove acetone. The plates were then dried in open air for 20 minutes. After drying, the plates were then covered with foil seal and stored at −80° C. overnight.

PRTN_D = experiment: as above; conditions: 500 μM
Method: as §1

PRTN_E = experiment: as above; conditions: 500 μM
Method: as §1

PRTN_I = experiment: as above; conditions: 500 μM
Method: as §1

PRTN_H = experiment: as above; conditions: 500 μM
Method: as §1

PRTN_B = experiment: as above; conditions: 500 μM
Method: as §1

PRTN_J = experiment: as above; conditions: 500 μM
Method: as §1

PRTN_A = experiment: as above; conditions: 500 μM
Method: as §1

PRTN_G = experiment: as above; conditions: 500 μM
Method: as §1

PRTN_K = experiment: as above; conditions: 500 μM
Method: as §1

PRTN_F = experiment: as above; conditions: 500 μM
Method: as §1

CRBN-318 = CRBN-318 (Homo sapiens, UniProt Q96SW2); experiment: as above; set-up: endogenous in cells; host or cells: cell lysate; conditions: native folded protein, read-out: Percentage inhibition of probe labeling, CRBN_318
Method: as §1

CRBN-287 = CRBN-287 (Homo sapiens, UniProt Q96SW2); experiment: as above; set-up: endogenous in cells; host or cells: cell lysate; conditions: native folded protein, read-out: Percentage inhibition of probe labeling, CRBN_287
Method: as §1

CRBN Cys318 = target: T1, CRBN Cys318 (Homo sapiens, UniProt Q96SW2); experiment: Inhibition of iodoacetamide probe labeling of CRBN cysteines, cell lysate (Table 3A); conditions: for inhibition at 7.8 µM: 7.8 micromolar
T1 construct: endogenous in cells
Method: (§2) “X@Y” means that x % inhibition of iodoacetamide probe labeling was observed by treatment of cell lysate with the give compound in each row of the table for 1 h at a concentration of y micromolar. There was consistently high inhibition at C318 in addition to C287, which can be attributed to an allosteric inhibition.

CRBN Cys287 = target: T2, CRBN Cys287 (Homo sapiens, UniProt Q96SW2); experiment: as above; conditions: for inhibition at 7.8 µM: 7.8 micromolar
T2 construct: endogenous in cells
Method: as §2

CRBN Cys234 = target: T3, CRBN Cys234 (Homo sapiens, UniProt Q96SW2); experiment: as above; conditions: for inhibition at 500 µM: 500 micromolar; for inhibition at 500 µM / inhibition at 31.2 µM / inhibition at 125 µM: read-out: % inhibition of iodoacetamide probe labeling, Cys234
T3 construct: endogenous in cells
Method: as §2

CRBN Cys205 = target: T4, CRBN Cys205 (Homo sapiens, UniProt Q96SW2); experiment: as above; conditions: for inhibition at 500 µM: 500 micromolar; for inhibition at 500 µM / inhibition at 31.2 µM / inhibition at 125 µM: read-out: % inhibition of iodoacetamide probe labeling, Cys205
T4 construct: endogenous in cells
Method: as §2

CRBN Cys366 = target: T5, CRBN Cys366 (Homo sapiens, UniProt Q96SW2); experiment: as above
T5 construct: endogenous in cells
Method: as §2

CRBN Cys188 = target: T6, CRBN Cys188 (Homo sapiens, UniProt Q96SW2); experiment: as above; conditions: for inhibition at 125 µM: 125 micromolar
T6 construct: endogenous in cells
Method: as §2

CRBN Cys219 = target: T7, CRBN Cys219 (Homo sapiens, UniProt Q96SW2); experiment: as above; conditions: for inhibition at 500 µM: 500 micromolar
T7 construct: endogenous in cells
Method: as §2

[1] = 50 micromolar, cell lysate, 1 h
[2] = read-out: % inhibition of iodoacetamide probe labeling, Cys287
[3] = 500 micromolar, cell lysate, 1 h, read-out: % inhibition of iodoacetamide probe labeling, Cys318
[4] = cell lysate, 1 h, read-out: % inhibition of iodoacetamide probe labeling, Cys219
[5] = read-out: % inhibition of iodoacetamide probe labeling, Cys219
[6] = 500 micromolar, cell lysate, 1 h, read-out: % inhibition of iodoacetamide probe labeling, Cys287
[7] = 2.0 micromolar, cell lysate, 1 h
[8] = 7.8 micromolar, cell lysate, 1 h
[9] = 31.2 micromolar, cell lysate, 1 h
[10] = 125 micromolar, cell lysate, 1 h
[11] = 0.12 micromolar, cell lysate, 1 h

T3 sequence (Q96SW2 whole entry): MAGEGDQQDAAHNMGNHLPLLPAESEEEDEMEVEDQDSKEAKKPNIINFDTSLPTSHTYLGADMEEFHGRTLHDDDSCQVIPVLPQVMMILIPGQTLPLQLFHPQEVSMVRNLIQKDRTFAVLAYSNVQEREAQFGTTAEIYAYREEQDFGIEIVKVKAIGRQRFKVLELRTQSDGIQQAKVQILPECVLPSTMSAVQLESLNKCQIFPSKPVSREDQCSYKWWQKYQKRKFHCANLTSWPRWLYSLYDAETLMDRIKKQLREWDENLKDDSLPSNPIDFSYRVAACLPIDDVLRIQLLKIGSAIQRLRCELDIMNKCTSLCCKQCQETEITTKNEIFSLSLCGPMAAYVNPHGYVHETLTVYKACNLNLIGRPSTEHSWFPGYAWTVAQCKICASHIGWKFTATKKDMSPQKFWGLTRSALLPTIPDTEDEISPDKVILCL
T4 sequence (Q96SW2 whole entry): as above
T7 sequence (Q96SW2 whole entry): as above
T1 sequence (Q96SW2 whole entry): as above
T6 sequence (Q96SW2 whole entry): as above
T2 sequence (Q96SW2 whole entry): as above
T5 sequence (Q96SW2 whole entry): as above
Sequence of CRBN-318 (Q96SW2 whole entry): as above
Sequence of CRBN-287 (Q96SW2 whole entry): as above

For `C=CC(=O)N1CCC(Oc2cc(C)cc(-c3ccccc3)c2)CC1`, the “Percentage inhibition of probe labeling, PRTN_C” value (PRTN_C) was 15%, the “Percentage inhibition of probe labeling, PRTN_D” value (PRTN_D) was 2% and the “Percentage inhibition of probe labeling, PRTN_E” value (PRTN_E) was 2%. For the same molecule, the “Percentage inhibition of probe labeling, PRTN_I” value (PRTN_I) was 0%, the “Percentage inhibition of probe labeling, PRTN_H” value (PRTN_H) was −5% and the “Percentage inhibition of probe labeling, PRTN_B” value (PRTN_B) was −1%. For the same molecule, the “Percentage inhibition of probe labeling, PRTN_J” value (PRTN_J) was −2%, the “Percentage inhibition of probe labeling, PRTN_A” value (PRTN_A) was 5% and the “Percentage inhibition of probe labeling, PRTN_G” value (PRTN_G) was −8%. For the same molecule, the “Percentage inhibition of probe labeling, PRTN_K” value (PRTN_K) was 17%, the “Percentage inhibition of probe labeling, PRTN_F” value (PRTN_F) was −12% and the inhibition at 500 µM (CRBN-318) was 76%. It also gave an inhibition at 500 µM (CRBN-287) of 72%.
In the case of `COc1ccccc1-c1cc(C#N)cc(OC2CCN(C(=O)/C=C/CN(C)C)CC2)c1` [Al], the inhibition at 5 µM (CRBN Cys318; 5 micromolar, cell lysate, 1 h) was 43%, the inhibition at 50 µM (CRBN Cys318; [1]) was 86% and the inhibition at 500 µM (CRBN Cys318; read-out: % inhibition of iodoacetamide probe labeling, Cys318, 500 micromolar, cell lysate, 1 h) was 95%. For the same molecule, the inhibition at 5 µM (CRBN Cys287; 5 micromolar, cell lysate, 1 h) was 40%, the inhibition at 50 µM (CRBN Cys287; [1]) was 90% and the inhibition at 500 µM (CRBN Cys287; [2]) was 97%.
Work on `C=CC(=O)N1CC(Oc2ccc(Cl)cc2)C1` [Example A3] yielded an inhibition at 500 µM (CRBN Cys234; cell lysate, 1 h) of 31%, an inhibition at 31.2 µM (CRBN Cys234) of 6% and an inhibition at 125 µM (CRBN Cys234) of 19%. The inhibition at 500 µM (CRBN Cys205; cell lysate, 1 h) was 15%, the inhibition at 31.2 µM (CRBN Cys205) was 7% and the inhibition at 125 µM (CRBN Cys205) was 21%. The inhibition at 125 µM (CRBN Cys366; read-out: % inhibition of iodoacetamide probe labeling, Cys366) was -6%, the inhibition at 125 µM (CRBN Cys188; cell lysate, 1 h) was 5% and the inhibition at 500 µM (CRBN Cys188; 500 micromolar, cell lysate, 1 h) was 3%. It also gave an inhibition at 7.8 µM (CRBN Cys318; cell lysate, 1 h) of 21%, an inhibition at 500 µM (CRBN Cys318; [3]) of 85% and an inhibition at 31.2 µM (CRBN Cys318; read-out: % inhibition of iodoacetamide probe labeling, Cys318, 31.2 micromolar, cell lysate, 1 h) of 35%. The inhibition at 125 µM (CRBN Cys318; read-out: % inhibition of iodoacetamide probe labeling, Cys318, 125 micromolar, cell lysate, 1 h) was 64%, the inhibition at 500 µM (CRBN Cys219; [4]) was 40% and the inhibition at 31.2 µM (CRBN Cys219; [5]) was 19%. For the same molecule, the inhibition at 125 µM (CRBN Cys219; [5]) was 8%, the inhibition at 7.8 µM (CRBN Cys287; cell lysate, 1 h) was 12% and the inhibition at 500 µM (CRBN Cys287; [6]) was 96%. The inhibition at 31.2 µM (CRBN Cys287; [2]) was 51% and the inhibition at 125 µM (CRBN Cys287; [2]) was 80%.
Work on `COc1ccccc1-c1cc(OC2CCN(C(=O)/C(C#N)=C/C(C)C)CC2)cc(C(N)=O)c1` [Example A5] yielded an inhibition at 2 µM (CRBN Cys234; [7]) of 19%, an inhibition at 7.8 µM (CRBN Cys234; [8]) of 35% and an inhibition at 31.2 µM (CRBN Cys234; [9]) of 37%. For the same molecule, the inhibition at 125 µM (CRBN Cys234; [10]) was 60%, the inhibition at 500 µM (CRBN Cys234; cell lysate, 1 h) was 25% and the inhibition at 2 µM (CRBN Cys205; [7]) was 19%. It also gave an inhibition at 7.8 µM (CRBN Cys205; [8]) of 36%, an inhibition at 31.2 µM (CRBN Cys205; [9]) of 29% and an inhibition at 125 µM (CRBN Cys205; [10]) of 37%. For the same molecule, the inhibition at 500 µM (CRBN Cys205; cell lysate, 1 h) was 31%, the inhibition at 7.8 µM (CRBN Cys366; [8]) was -22% and the inhibition at 2 µM (CRBN Cys188; [7]) was 22%. It also gave an inhibition at 7.8 µM (CRBN Cys188; [8]) of 13%, an inhibition at 31.2 µM (CRBN Cys188; [9]) of 13% and an inhibition at 125 µM (CRBN Cys188; cell lysate, 1 h) of 7%. The inhibition at 0.49 µM (CRBN Cys188; read-out: % inhibition of iodoacetamide probe labeling, Cys188) was 17%, the inhibition at 0.12 µM (CRBN Cys318; [11]) was 77% and the inhibition at 2 µM (CRBN Cys318; [7]) was 85%. For the same molecule, the inhibition at 7.8 µM (CRBN Cys318; cell lysate, 1 h) was 93%, the inhibition at 31.2 µM (CRBN Cys318; 31.2 micromolar, cell lysate, 1 h, read-out: % inhibition of iodoacetamide probe labeling, Cys318) was 94% and the inhibition at 125 µM (CRBN Cys318; 125 micromolar, cell lysate, 1 h, read-out: % inhibition of iodoacetamide probe labeling, Cys318) was 95%. For the same molecule, the inhibition at 500 µM (CRBN Cys318; [3]) was 96%, the inhibition at 0.49 µM (CRBN Cys318; read-out: % inhibition of iodoacetamide probe labeling, Cys318, 0.49 micromolar, cell lysate, 1 h) was 76% and the inhibition at 0.49 µM (CRBN Cys219; 0.49 micromolar, cell lysate, 1 h) was 17%. The inhibition at 7.8 µM (CRBN Cys219; [8]) was 13%, the inhibition at 125 µM (CRBN Cys219; 125 micromolar, cell lysate, 1 h, read-out: % inhibition of iodoacetamide probe labeling, Cys219) was 25% and the inhibition at 500 µM (CRBN Cys219; [4]) was 13%. The inhibition at 2 µM (CRBN Cys219; [5]) was 22%, the inhibition at 0.12 µM (CRBN Cys287; [11]) was 70% and the inhibition at 2 µM (CRBN Cys287; 2.0 micromolar, cell lysate, 1 h, read-out: % inhibition of iodoacetamide probe labeling, Cys287) was 93%. It also gave an inhibition at 7.8 µM (CRBN Cys287; cell lysate, 1 h) of 96%, an inhibition at 31.2 µM (CRBN Cys287; 31.2 micromolar, cell lysate, 1 h, read-out: % inhibition of iodoacetamide probe labeling, Cys287) of 98% and an inhibition at 125 µM (CRBN Cys287; 125 micromolar, cell lysate, 1 h, read-out: % inhibition of iodoacetamide probe labeling, Cys287) of 99%. For the same molecule, the inhibition at 500 µM (CRBN Cys287; [6]) was 99% and the inhibition at 0.49 µM (CRBN Cys287; [2]) was 83%.
